Article PMC9120017, “Inhibition mechanism of the chloride channel TMEM16A by the pore blocker 1PBC” (Nature Communications, 2022)
Where two headings read alike, the source gives them in different places.

Target: T1, mouse TMEM16A mutant I640A (Mus musculus, UniProt Q8BHY3, I640A)
T1 construct: expressed in transfected cells; host or cells: HEK293T
T1 sequence (Q8BHY3 1-960 I640A): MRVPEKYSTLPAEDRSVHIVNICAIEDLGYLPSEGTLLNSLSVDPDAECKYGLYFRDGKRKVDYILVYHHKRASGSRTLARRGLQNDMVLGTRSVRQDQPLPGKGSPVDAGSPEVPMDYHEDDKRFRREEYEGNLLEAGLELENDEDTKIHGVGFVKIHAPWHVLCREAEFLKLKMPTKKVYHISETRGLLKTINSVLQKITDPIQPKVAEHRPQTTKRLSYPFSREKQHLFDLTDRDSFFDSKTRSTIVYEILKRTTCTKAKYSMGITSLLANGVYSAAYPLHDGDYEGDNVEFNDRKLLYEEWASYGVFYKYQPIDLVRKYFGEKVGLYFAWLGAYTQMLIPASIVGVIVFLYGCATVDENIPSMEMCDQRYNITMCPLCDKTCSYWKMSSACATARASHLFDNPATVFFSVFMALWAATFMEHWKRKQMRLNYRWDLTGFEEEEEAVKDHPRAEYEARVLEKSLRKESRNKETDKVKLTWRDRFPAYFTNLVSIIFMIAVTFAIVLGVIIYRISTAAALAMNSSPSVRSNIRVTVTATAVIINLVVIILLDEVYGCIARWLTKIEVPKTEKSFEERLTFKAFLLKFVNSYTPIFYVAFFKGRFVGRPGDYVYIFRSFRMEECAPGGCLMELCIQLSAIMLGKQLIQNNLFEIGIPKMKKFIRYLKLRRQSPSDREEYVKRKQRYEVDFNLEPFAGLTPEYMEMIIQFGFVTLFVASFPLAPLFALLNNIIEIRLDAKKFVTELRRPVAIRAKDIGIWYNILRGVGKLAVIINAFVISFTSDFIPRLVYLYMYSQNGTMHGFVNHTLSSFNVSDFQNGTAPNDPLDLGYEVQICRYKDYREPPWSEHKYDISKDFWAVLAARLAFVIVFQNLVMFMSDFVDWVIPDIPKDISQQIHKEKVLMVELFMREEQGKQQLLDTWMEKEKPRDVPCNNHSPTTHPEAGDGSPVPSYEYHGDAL
Assay: Inside-out patch recording of 1PBC block, mutant I640A
Assay type: cell-based
Conditions: for remaining activity at 100 µM: 1PBC conc 100; for remaining activity at 100 µM / remaining activity at 3 µM / remaining activity at 10 µM / remaining activity at 30 µM: read-out: relative current in 1PBC (avr); for remaining activity at 3 µM: 1PBC conc 3; for remaining activity at 10 µM: 1PBC conc 10; for remaining activity at 30 µM: 1PBC conc 30
Experimental: HEK293T cells (ATCC CRL-1573) were maintained in Dulbecco’s modified Eagle’s medium (DMEM; Sigma-Aldrich) supplemented with 10 U ml^−1 penicillin, 0.1 mg ml^−1 streptomycin (Sigma-Aldrich), 2 mM L-glutamine (Sigma-Aldrich), and 10% FBS (Sigma-Aldrich) in a humidified atmosphere containing 5% CO2 at 37 °C. HEK293S GnTI^− cells (ATCC CRL-3022) were maintained in HyClone HyCell TransFx-H medium (GE Healthcare) supplemented with 10 U ml^−1 penicillin, 0.1 mg ml^−1 streptomycin, 4 mM L-glutamine, 0.15% poloxamer 188 (Sigma-Aldrich), and 1% FBS in an atmosphere containing 5% CO2 at 185 rpm at 37 °C. The ac splice variant of mouse TMEM16A (UniProt ID: Q8BHY3), mouse TMEM16B (UniProt ID: Q8CFW1), or mouse TMEM16F (UniProt ID: Q6P9J9) bearing a 3C cleavage site, a Venus YFP, a Myc tag, and a Streptavidin-binding peptide (SBP) downstream of the open reading frame in a modified pcDNA3.1 vector (Invitrogen) were used as described previously[21],[31]. Mutations were introduced using a modified QuikChange method[58] and were verified by sequencing.
HEK293T cells were transfected with 3–4 μg DNA per 6 cm Petri dish using the calcium phosphate co-precipitation method and were used within 24–96 h after transfection. Recordings were performed on inside-out patches excised from HEK293T cells expressing the construct of interest. Patch pipettes were pulled from borosilicate glass capillaries (O.D. 1.5 mm, I.D. 0.86 mm, Sutter Instrument) and were fire-polished with a microforge (Narishige) before use. Pipette resistance was typically 3–8 MΩ when filled with the recording solutions detailed below. Seal resistance was typically 4 GΩ or higher. Voltage-clamp recordings were made using Axopatch 200B, Digidata 1550, and Clampex 10.7 (Molecular Devices). Analog signals were filtered with the in-built 4-pole Bessel filter at 10 kHz and were digitized at 20 kHz. Solution exchange was achieved using a gravity-fed system through a theta glass pipette mounted on an ultra-fast piezo-driven stepper (Siskiyou). […] All recordings were performed at 20 °C.
A symmetrical ionic condition was used throughout. Stock solution with Ca^2+-EGTA contained 150 mM NaCl, 5.99 mM Ca(OH)2, 5 mM EGTA, and 10 mM HEPES at pH 7.40. Stock solution with EGTA contained 150 mM NaCl, 5 mM EGTA, and 10 mM HEPES at pH 7.40. Free Ca^2+ concentrations were adjusted by mixing the stock solutions at the required ratios calculated using the WEBMAXC program (http://web.stanford.edu/~cpatton/webmaxcS.htm). Patch pipettes were filled with the stock solution with Ca^2+-EGTA, which has a free Ca^2+ concentration of 1 mM. 1PBC (ChemBridge) stock was reconstituted in anhydrous DMSO (Sigma-Aldrich) at 100 mM and stored at −20 °C. Working solutions with 1PBC were prepared by serial dilution. Unless otherwise stated, experiments were performed at a saturating Ca^2+ concentration as shown in Supplementary Table 1 and the primary data were corrected for current rundown as described previously[21],[25].
Concentration-response relations, obtained from the ratio of the I-V plots before and after the application of the blocker, were fitted to the Hill equation,1 I/Imax=1/1+IC50/[blocker]^h where I/Imax is the normalized current responses, IC50 defines the concentration at which inhibition is at its half-maximum, and h is the Hill coefficient.

N#Cc1c(C(F)(F)F)cc(O)n2c1nc1ccccc12 [1PBC]
remaining activity at 100 µM (40 mV): 18.8%
IC50 (60 mV, 15 µM Ca2+): 23.1 µM
remaining activity at 3 µM (60 mV): 89%
remaining activity at 10 µM (60 mV): 69.4%
remaining activity at 30 µM (60 mV): 44.3%
remaining activity at 100 µM (60 mV): 17.7%
log-fold IC50 (change of mutant vs WT) (80 mV): 1.079
IC50 (80 mV, 15 µM Ca2+): 22.1 µM
remaining activity at 3 µM (80 mV): 89.4%
remaining activity at 10 µM (80 mV): 67.9%
remaining activity at 30 µM (80 mV): 43%
remaining activity at 100 µM (80 mV): 17.7%
IC50 (100 mV, 15 µM Ca2+): 23.1 µM
remaining activity at 3 µM (100 mV): 91.3%
remaining activity at 10 µM (100 mV): 69.4%
remaining activity at 30 µM (100 mV): 43.1%
remaining activity at 100 µM (100 mV): 18%
IC50 (120 mV, 15 µM Ca2+): 24.9 µM
remaining activity at 3 µM (120 mV): 93.7%
remaining activity at 10 µM (120 mV): 71.5%
remaining activity at 30 µM (120 mV): 45%
remaining activity at 100 µM (120 mV): 17.7%
IC50 (140 mV, 15 µM Ca2+): 28.2 µM
remaining activity at 3 µM (140 mV): 96.5%
remaining activity at 10 µM (140 mV): 75.3%
remaining activity at 30 µM (140 mV): 47.6%
remaining activity at 100 µM (140 mV): 18.5%
IC50 (-20 mV, 15 µM Ca2+): 36.1 µM
remaining activity at 3 µM (-20 mV): 91.2%
remaining activity at 10 µM (-20 mV): 78.5%
remaining activity at 30 µM (-20 mV): 55.5%
remaining activity at 100 µM (-20 mV): 25.8%
IC50 (-40 mV, 15 µM Ca2+): 41.5 µM
remaining activity at 3 µM (-40 mV): 91.5%
remaining activity at 10 µM (-40 mV): 80.9%
remaining activity at 30 µM (-40 mV): 58.8%
remaining activity at 100 µM (-40 mV): 28.8%
IC50 (-60 mV, 15 µM Ca2+): 46.6 µM
remaining activity at 3 µM (-60 mV): 91.7%
remaining activity at 10 µM (-60 mV): 83.4%
remaining activity at 30 µM (-60 mV): 61.1%
remaining activity at 100 µM (-60 mV): 31.4%
IC50 (-80 mV, 15 µM Ca2+): 53 µM
remaining activity at 3 µM (-80 mV): 92.4%
remaining activity at 10 µM (-80 mV): 84.6%
remaining activity at 30 µM (-80 mV): 64.1%
remaining activity at 100 µM (-80 mV): 34.6%
IC50 (-100 mV, 15 µM Ca2+): 60.2 µM
remaining activity at 3 µM (-100 mV): 93.4%
remaining activity at 10 µM (-100 mV): 86.7%
remaining activity at 30 µM (-100 mV): 66.4%
remaining activity at 100 µM (-100 mV): 37.8%
IC50 (-120 mV, 15 µM Ca2+): 66 µM
remaining activity at 3 µM (-120 mV): 93.4%
remaining activity at 10 µM (-120 mV): 87.4%
remaining activity at 30 µM (-120 mV): 68.3%
remaining activity at 100 µM (-120 mV): 40.2%
IC50 (-140 mV, 15 µM Ca2+): 73.5 µM
remaining activity at 3 µM (-140 mV): 93.7%
remaining activity at 10 µM (-140 mV): 88.3%
remaining activity at 30 µM (-140 mV): 69.4%
remaining activity at 100 µM (-140 mV): 44%
IC50 (I640A, V 0 mV): 31.5 µM
IC50 (I640A, V 20 mV): 27.5 µM
IC50 (I640A, V 40 mV): 24.7 µM
IC50 (I640A, V 60 mV): 23.1 µM
IC50 (I640A, V 80 mV): 22.1 µM
IC50 (I640A, V 100 mV): 23.1 µM
IC50 (I640A, V 120 mV): 24.9 µM
IC50 (I640A, V 140 mV): 28.2 µM
IC50 (I640A, V -20 mV): 36.1 µM
IC50 (I640A, V -40 mV): 41.5 µM
IC50 (I640A, V -60 mV): 46.6 µM
IC50 (I640A, V -80 mV): 53 µM
IC50 (I640A, V -100 mV): 60.2 µM
IC50 (I640A, V -120 mV): 66 µM
IC50 (I640A, V -140 mV): 73.5 µM
